Results from US5541232A, “Treatment of multidrug resistant diseases” (Chemex Pharmaceuticals, Inc., priority 1994, dated 1996).

Legend:
[1] = system: human breast adenocarcinoma; details: cited from earlier work
SNB Glioblastoma cells = assay: in vitro cytotoxicity anti tumor activity; type: cell-based
[2] = system: Lung (NCI-H23) cancer cells; assay: in vitro cytotoxicity anti tumor activity; type: cell-based; details: Homo sapiens
[3] = system: MCF7/ADR human breast adenocarcinoma cells; assay: flow cytometry P-glycoprotein function assay of doxorubicin efflux, MCF7/ADR (doxorubicin resistant); type: cell-based
Method: (§1) The following tests were preformed to determine the effect of NDGA on efflux of doxorubicin (hereinafter sometimes referred to as DOX) for doxorubicin sensitive MCF7/0 and doxorubicin resistant MCF7/ADR human breast adenocarcinoma cells in vitro.
(§2) The cells were exposed to 50 μg/ml NDGA for 24 hrs prior to loading with DOX (doxorubicin) at 37° C. […] PBS. Flow analysis of cell efflux of DOX was collected over 30 minutes using the time parameter.
(§3) Procedure for P-Glycoprotein (PGP) Function Assay of Doxorubicin Efflux is shown hereunder.
(§4) 1. […] Store at room temperature.
(§5) 2. Doxorubicin (GFW=580) Make a solution of doxorubicin to contain 10 μg/ml. Store frozen at 0° C.
(§6) 4. NDGA (MW=302.36) Make a solution of NDGA to contain 50 μg/ml. Store frozen at 0° C.
(§7) 5. MCF7/0 (Doxorubicin sensitive) and MCF7/ADR (Doxorubicin resistant), human breast adenocarcinoma cell lines.
(§8) 1. Make up 2×10^6 cells per ml in PBS. Expose 1 ml of cells to 50 μg of NDGA for 24 hrs at 37° C. prior to loading with Doxorubicin.
(§9) 2. Add 1 ml of 10 μg/ml doxorubicin, mix and divide into two aliquots.
(§10) 4. Incubate both tubes at 37° C. for 30 minutes.
(§11) 5. Centrifuge the tubes at 37° C. for 5 minutes on a fast spin to pellet cells. Resuspend in 1 ml of buffer.
(§12) 6. Run immediately on the flow cytometer. Excitation 488 nm, emission 560-600 nm. Collect forward and 90° side scatter and PMT4 linear scale. Collect 10,000-50,000 events and calculate the mean channel fluorescence (MCF) for PMT4.
(§13) 7. Run both samples as close together as possible, and avoid prolonged exposure to room temperature.

LOX-IMVI Melanoma cells = assay: in vitro cytotoxicity anti tumor activity; type: cell-based; details: Homo sapiens
[4] = system: Detroit 551 Skin Fibroblasts; assay: in vitro cytotoxicity, normal cells; type: cell-based; details: Homo sapiens
CAK-1 Renal cancer cells = assay: in vitro cytotoxicity anti tumor activity; type: cell-based
[5] = system: Hs 68 Newborn Foreskin Fibroblasts; assay: in vitro cytotoxicity, normal cells; type: cell-based; details: Homo sapiens
WI-38 Lung Fibroblasts = assay: in vitro cytotoxicity, normal cells; type: cell-based; details: Homo sapiens
Lung (LX-1) cancer cells = assay: in vitro cytotoxicity anti tumor activity; type: cell-based; details: 1 h
DLD-1 Colon cancer cells = assay: in vitro cytotoxicity anti tumor activity; type: cell-based; details: Homo sapiens
[6] = system: MCF7/0 human breast adenocarcinoma cells; assay: flow cytometry P-glycoprotein function assay of doxorubicin efflux, MCF7/0 (doxorubicin sensitive); type: cell-based
Method: as §1, §2, §3, §4, §5, §6, §7, §8, §9, §10, §11, §12, §13

[7] = system: OVCAR3 ovarian cancer cells; assay: in vitro cytotoxicity anti tumor activity; type: cell-based; details: Homo sapiens
[8] = system: KB-3-1 human cervical carcinoma cells; assay: inhibition of colony formation, KB-3-1; type: cell-based; details: KB 3-1, 240 h, read-out: IC50 (VBL), 50% inhibition of colony formation
Source text: (§14) To investigate whether masoprocol modulates multidrug resistance, a line of multidrug resistant (GRC-1) cells which were derived from parenteral drug sensitive human cervical carcinoma (KB-3-1) cells by transfection of the mdr1 genes were employed. Such transfection was by the method set forth in Choi, et al., Cell 53:519-529, 1989. These cell lines differ only with respect to the over-expression of P-glycoprotein. These tests were designed to examine whether masoprocol modulates tumor cell drug resistance by interfering with P-glycoprotein function. […] See, Regulation of initial vinblastine influx by P-glycoprotein, Shalinsky, et al., cited above.
Masoprocol was provided by Chemex Pharmaceuticals, Inc. (Fort Lee, N.J.). Tritiated vinblastine ([^3 H]VBL) (10 Ci mmol^-1) was purchased from Moravek Biochemicals (Brea, Calif.), stored in the dark at -80° C. and protected from light during the experiments. […]
(§15) First, cells which had been seeded at 200-300 cells/dish were incubated in media containing masoprocol or VBL. After an incubation period of 10 days at 37° C. the cells were fixed with methanol and stained with Giemsa, and the number of colonies per dish were counted and expressed as a percent of the number of colonies in control conditions. […] Parenthesis indicate standard deviations determined from replicate experiments.

[9] = system: GRC-1 multidrug resistant human cervical carcinoma cells; assay: inhibition of colony formation, GRC-1; type: cell-based
Source text: as §14
Masoprocol was provided by Chemex Pharmaceuticals, Inc. (Fort Lee, N.J.). Tritiated vinblastine ([^3 H]VBL) (10 Ci mmol^-1) was purchased from Moravek Biochemicals (Brea, Calif.), stored in the dark at -80° C. and protected from light during the experiments. Dipyridamole (DPM) was provided by Boerhinger Ingelheim Pharmaceuticals, Inc. (Ridgefield, Conn.).
Drug-sensitive KB-3-1 cells and the drug resistant subline (KB-GRC-1) were obtained from Dr. Igor Roninson (University of Illinois, College of Medicine, Chicago, Ill.). Cells were maintained in Dulbecco's modified Eagle's medium supplemented with 10% fetal bovine serum and 2 mM glutamine. The KB-GRC-1 cells were maintained in medium supplemented with 6 ng/ml colchicine.
as §15

P-glycoprotein [10] = details: known, Shalinsky et al.; cited from earlier work
P-glycoprotein [11] = details: cited from earlier work
[12] = No NDGA, DOX + Verapamil (30 μl of a 1 mM solution)
[13] = No NDGA, DOX alone, 5 μg×30 min, 37° C.
[14] = RX NDGA (50 μg/ml, 24 hrs), DOX
[15] = RX NDGA (50 μg/ml, 24 hrs), DOX + Verapamil

C[C@@H](Cc1ccc(O)c(O)c1)[C@@H](C)Cc1ccc(O)c(O)c1 (relative stereo) [d,l NDGA]
effectiveness against human breast adenocarcinoma [1]: particularly effective

COc1cc(CC(C)C(C)Cc2ccc(O)c(OC)c2)ccc1O (centres unmarked) [1,4-bis(3'-methoxy-4'-hydroxyphenyl)-2,3-dimethyl butane]
effectiveness against human breast adenocarcinoma [1]: particularly effective

COc1cc(CCCCc2ccc(O)c(OC)c2)ccc1O [1,4-bis(3'-methoxy-4'-hydroxyphenylbutane]
effectiveness against human breast adenocarcinoma [1]: particularly effective

Oc1ccc(CCCCc2cc(O)c(O)c(O)c2)cc1O [1-(3',4'-dihydroxyphenyl)-4(3',4',5'-trihydroxyphenyl)-butane]
effectiveness against human breast adenocarcinoma [1]: particularly effective

Oc1ccc(CCCCc2ccc(O)c(O)c2O)cc1O [1-(3',4'-dihydroxyphenyl)-4-(2',3',4'-trihydroxphenyl)-butane]
effectiveness against human breast adenocarcinoma [1]: particularly effective

Oc1ccc(O)c(CCCCc2ccc(O)c(O)c2)c1 [1-(3',4'-dihydroxyphenyl)-4-(2',5'-dihydroxyphenyl)-butane]
effectiveness against human breast adenocarcinoma [1]: particularly effective

Oc1ccc(CCCCc2ccccc2)cc1O [1-(3',4'-dihydroxyphenyl)-4-phenyl butane]
effectiveness against human breast adenocarcinoma [1]: particularly effective

COc1cccc2c1C(=O)c1c(O)c3c(c(O)c1C2=O)C[C@@](O)(C(=O)CO)C[C@@H]3O[C@H]1C[C@H](N)[C@H](O)[C@H](C)O1 [Doxorubicin]
IC50 (SNB Glioblastoma cells; 1 h): 0.7 µM | IC50 (SNB Glioblastoma cells; 70 h): 0.03 µM | IC50 ([2]; NCI-H23, 1 h): 9.3 µM | IC50 ([2]; NCI-H23, 70 h): 0.15 µM | Mean channel fluorescence (loading of DOX in cells) [3, 12]: 309.9 | Mean channel fluorescence (loading of DOX in cells) [3, 13]: 227.4 | Mean channel fluorescence (loading of DOX in cells) [3, 14]: 285.6 | Mean channel fluorescence (loading of DOX in cells) [3, 15]: 365.4 | IC50 (LOX-IMVI Melanoma cells; 1 h): 4.8 µM | IC50 (LOX-IMVI Melanoma cells; 70 h): 0.09 µM | IC50 ([4]; Detroit 551, 1 h): 3.2 µM | IC50 ([4]; Detroit 551, 70 h): 5.5 µM | IC50 (CAK-1 Renal cancer cells; 1 h): 3.8 µM | IC50 (CAK-1 Renal cancer cells; 70 h): 0.11 µM | IC50 ([5]; Hs68, 1 h): 11.6 µM | IC50 ([5]; Hs68, 70 h): 0.12 µM | IC50 (WI-38 Lung Fibroblasts; WI-38, 1 h): 10 µM | IC50 (WI-38 Lung Fibroblasts; WI-38, 70 h): 0.6 µM | IC50 (Lung (LX-1) cancer cells): 26 µM | IC50 (DLD-1 Colon cancer cells; DLD-1, 1 h): 3.7 µM | IC50 (DLD-1 Colon cancer cells; DLD-1, 70 h): 0.42 µM | Mean channel fluorescence (loading of DOX in cells) [6, 12]: 312.8 | Mean channel fluorescence (loading of DOX in cells) [6, 13]: 318.7 | Mean channel fluorescence (loading of DOX in cells) [6, 14]: 460.4 | Mean channel fluorescence (loading of DOX in cells) [6, 15]: 435.6 | IC50 ([7]; OVCAR-3, 1 h): 13.8 µM | IC50 ([7]; OVCAR-3, 70 h): 0.7 µM

CC(=O)Oc1ccc(C[C@@H](C)[C@@H](C)Cc2ccc(OC(C)=O)c(OC(C)=O)c2)cc1OC(C)=O [NDGA Tetracetate]
effectiveness against human breast adenocarcinoma [1]: particularly effective

CCC(=O)Oc1ccc(C[C@@H](C)[C@@H](C)Cc2ccc(OC(=O)CC)c(OC(=O)CC)c2)cc1OC(=O)CC [NDGA Tetrapropionate]
effectiveness against human breast adenocarcinoma [1]: particularly effective

CC[C@]1(O)C[C@@H]2CN(CCc3c([nH]c4ccccc34)[C@@](C(=O)OC)(c3cc4c(cc3OC)N(C)[C@H]3[C@@](O)(C(=O)OC)[C@H](OC(C)=O)[C@]5(CC)C=CCN6CC[C@]43[C@@H]65)C2)C1 [VBL]
IC50 [8]: 0.00138 µM | sensitivity of GRC-1 compared with KB-3-1 cells ([9]; GRC-1 vs KB-3-1): large differences in sensitivity | IC50 ([9]; Homo sapiens, 240 h, read-out: IC50 (VBL), 50% inhibition of colony formation): 0.0522 µM | P-glycoprotein substrate (P-glycoprotein [10]): known to be a P-glycoprotein substrate | steady state accumulation and efflux in cells overexpressing mdr1 (P-glycoprotein [11]): decreased steady state accumulation and increased efflux
